From US11419859B2, “Combination therapy for treating malignancies” (Servier Pharmaceuticals LLC, priority 2015, dated 2022)

Assay: blood bilirubin in subjects with a UGT1A1 mutation receiving COMPOUND 1
Assay type: in vivo, human
Text: All toxicity≥Grade 3 not due to underlying AML or complications of the disease or myelosuppressive treatment, with the exception of ≥Grade 3 blood bilirubin increases in subjects with a UGT1A1 mutation receiving COMPOUND 1.

SMILES: CC(C)(O)CNc1nc(Nc2ccnc(C(F)(F)F)c2)nc(-c2cccc(C(F)(F)F)n2)n1 [COMPOUND 1, 2-methyl-[(4-[6-(trifluoromethyl)pyridin-2-yl]-6-{[2-(trifluoromethyl)pyridin-4-yl]amino}-1,3,5-triazin-2-yl)amino]propan-2-ol]
- blood bilirubin: isolated blood bilirubin increases have been seen
